Measurements: article PMC11249953, “c-KIT inhibitors reduce pathology and improve behavior in the Tg(SwDI) model of Alzheimer’s disease” (Life Science Alliance, 2024)
“And” between values parts separate entries of the source, which are not always exact repeats. Equal values may be shown once.

Assays:
[1] = target: T1, KIT (V559D) (Homo sapiens, UniProt P10721, V559D); assay: KINOMEscan competition binding, KIT (V559D); settings: 10 µM compound
T1 construct: DNA label for qPCR read-out (T7 phage fusion or DNA tag); purchased Eurofins DiscoverX Corporation; host or cells: T7 phage in E. coli (BL21-derived) or HEK-293
T1 sequence (P10721 26-976 V559D): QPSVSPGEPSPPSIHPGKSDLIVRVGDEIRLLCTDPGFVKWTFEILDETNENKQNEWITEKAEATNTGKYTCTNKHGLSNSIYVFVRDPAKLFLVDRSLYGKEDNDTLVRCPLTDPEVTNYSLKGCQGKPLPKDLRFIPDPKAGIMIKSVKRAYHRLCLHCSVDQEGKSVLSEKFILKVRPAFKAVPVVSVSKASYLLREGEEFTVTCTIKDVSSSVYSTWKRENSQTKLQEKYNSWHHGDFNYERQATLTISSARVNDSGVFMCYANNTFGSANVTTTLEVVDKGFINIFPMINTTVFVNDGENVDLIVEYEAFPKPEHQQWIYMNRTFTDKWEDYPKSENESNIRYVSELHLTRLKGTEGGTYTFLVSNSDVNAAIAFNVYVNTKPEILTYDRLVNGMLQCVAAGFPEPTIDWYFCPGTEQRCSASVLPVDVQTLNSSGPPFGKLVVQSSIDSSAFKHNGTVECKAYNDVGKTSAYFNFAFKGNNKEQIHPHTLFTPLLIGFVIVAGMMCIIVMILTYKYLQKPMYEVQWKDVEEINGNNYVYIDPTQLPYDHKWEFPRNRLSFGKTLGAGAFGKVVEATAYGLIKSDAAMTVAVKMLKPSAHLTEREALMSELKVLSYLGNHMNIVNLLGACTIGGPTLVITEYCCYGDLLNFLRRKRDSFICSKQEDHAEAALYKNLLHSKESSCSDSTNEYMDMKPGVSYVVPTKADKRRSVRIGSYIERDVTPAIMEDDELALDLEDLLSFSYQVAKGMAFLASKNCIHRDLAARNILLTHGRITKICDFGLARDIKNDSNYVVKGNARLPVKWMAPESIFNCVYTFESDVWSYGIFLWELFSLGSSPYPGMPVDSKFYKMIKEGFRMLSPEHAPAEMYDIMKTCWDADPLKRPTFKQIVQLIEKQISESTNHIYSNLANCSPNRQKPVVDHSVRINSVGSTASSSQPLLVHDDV
Protocol: (§1) The KINOMEscan screening platform (Eurofins DiscoverX Corporation) was performed using active site-directed competition binding assay to quantitatively measure interactions between BK40143 and BK40197 and more than 450 human kinases and disease relevant mutant variants. […] Screening “hits” are identified by measuring the amount of kinase captured in test (BK40143 and BK40197) versus control samples by using a quantitative and ultra-sensitive qRT-PCR method that detects the associated DNA label. BK40143 and BK40197 were screened at 10 µM concentration, and results for primary screen binding interactions were reported as “% Ctrl” (POC), where lower numbers indicate stronger hits and calculated as follows: [test compound signal−positive control signal/negative control signal−positive control signal]×100
(§2) negative control = DMSO (100% Ctrl)
(§3) positive control = control compound (0% Ctrl)
(§4) Based on screening data from of profiled compounds, a proportional relationship between primary screening results and corresponding compound/target affinities can be described as binding constants (Kd values) for the indicated ranges of POC values with tighter binding (higher affinity) interactions associated with lower POC values and weaker binding (lower affinity) associated with higher POC values. Briefly, kinase-tagged T7 phage strains were grown in parallel in 24-well blocks in an E. coli host derived from the BL21 strain. E. coli were grown to log-phase and infected with T7 phage from a frozen stock (multiplicity of infection = 0.4) and incubated with shaking at 32°C until lysis (90–150 min). The lysates were centrifuged (6,000g) and filtered (0.2 μm) to remove cell debris. The remaining kinases were produced in HEK-293 cells and subsequently tagged with DNA for qRT-PCR detection. Streptavidin-coated magnetic beads were treated with biotinylated small molecule ligands for 30 min at RT to generate affinity resins for kinase assays. The liganded beads were blocked with excess biotin and washed with blocking buffer (1% BSA, 0.05% Tween 20, 1 mM DTT; SeaBlock [Pierce]) to remove unbound ligand and to reduce non-specific phage binding. Binding reactions were assembled by combining kinases, liganded affinity beads, and test compounds in 1x binding buffer (20% 0.17x PBS, 0.05% Tween 20, 6 mM DTT; SeaBlock). Test compounds were prepared as 100x stocks in 100% DMSO and directly diluted into the assay. All reactions were performed in polypropylene 384-well plates in a final volume of 0.02 ml. The assay plates were incubated at RT with shaking for 1 h and the affinity beads were washed with wash buffer (1x PBS, 0.05% Tween 20). […] The kinase concentration in the eluates was measured by qRT-PCR.

[2] = target: T2, DDR1 (Homo sapiens, UniProt Q08345); assay: KINOMEscan competition binding, DDR1; settings: 10 µM compound
T2 construct: DNA label for qPCR read-out (T7 phage fusion or DNA tag); purchased Eurofins DiscoverX Corporation; host or cells: T7 phage in E. coli (BL21-derived) or HEK-293
T2 sequence (Q08345 19-913): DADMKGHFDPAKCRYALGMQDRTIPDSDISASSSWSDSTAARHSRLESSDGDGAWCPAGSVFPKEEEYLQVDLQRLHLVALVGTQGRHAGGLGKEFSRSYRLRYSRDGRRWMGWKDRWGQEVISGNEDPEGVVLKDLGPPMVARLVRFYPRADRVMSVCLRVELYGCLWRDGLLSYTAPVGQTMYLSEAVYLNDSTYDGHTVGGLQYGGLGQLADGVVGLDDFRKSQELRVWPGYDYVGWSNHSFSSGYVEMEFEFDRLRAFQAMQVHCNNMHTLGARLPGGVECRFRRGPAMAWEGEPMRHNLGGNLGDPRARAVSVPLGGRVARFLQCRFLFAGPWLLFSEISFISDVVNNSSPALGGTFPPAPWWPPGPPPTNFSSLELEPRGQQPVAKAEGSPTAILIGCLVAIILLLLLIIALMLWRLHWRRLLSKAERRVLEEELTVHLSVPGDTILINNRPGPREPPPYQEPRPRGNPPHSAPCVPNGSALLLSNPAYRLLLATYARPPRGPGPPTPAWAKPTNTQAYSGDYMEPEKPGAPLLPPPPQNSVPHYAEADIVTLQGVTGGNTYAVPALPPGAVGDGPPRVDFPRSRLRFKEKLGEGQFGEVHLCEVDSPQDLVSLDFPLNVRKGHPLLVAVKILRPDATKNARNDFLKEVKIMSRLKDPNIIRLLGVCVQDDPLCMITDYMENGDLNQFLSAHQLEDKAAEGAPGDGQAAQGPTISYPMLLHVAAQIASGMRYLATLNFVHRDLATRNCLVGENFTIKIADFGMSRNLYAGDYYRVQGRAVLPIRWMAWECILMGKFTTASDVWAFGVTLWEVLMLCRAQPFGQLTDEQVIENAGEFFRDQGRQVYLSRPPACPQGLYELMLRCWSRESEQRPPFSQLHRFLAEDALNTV
Protocol: as §1, §2, §3, §4

[3] = target: T3, PIKFYVE (Homo sapiens, UniProt Q9Y2I7); assay: KINOMEscan competition binding, PIKFYVE; settings: 10 µM compound
T3 construct: DNA label for qPCR read-out (T7 phage fusion or DNA tag); purchased Eurofins DiscoverX Corporation; host or cells: T7 phage in E. coli (BL21-derived) or HEK-293
T3 sequence (Q9Y2I7 whole entry, the tested form may be a part): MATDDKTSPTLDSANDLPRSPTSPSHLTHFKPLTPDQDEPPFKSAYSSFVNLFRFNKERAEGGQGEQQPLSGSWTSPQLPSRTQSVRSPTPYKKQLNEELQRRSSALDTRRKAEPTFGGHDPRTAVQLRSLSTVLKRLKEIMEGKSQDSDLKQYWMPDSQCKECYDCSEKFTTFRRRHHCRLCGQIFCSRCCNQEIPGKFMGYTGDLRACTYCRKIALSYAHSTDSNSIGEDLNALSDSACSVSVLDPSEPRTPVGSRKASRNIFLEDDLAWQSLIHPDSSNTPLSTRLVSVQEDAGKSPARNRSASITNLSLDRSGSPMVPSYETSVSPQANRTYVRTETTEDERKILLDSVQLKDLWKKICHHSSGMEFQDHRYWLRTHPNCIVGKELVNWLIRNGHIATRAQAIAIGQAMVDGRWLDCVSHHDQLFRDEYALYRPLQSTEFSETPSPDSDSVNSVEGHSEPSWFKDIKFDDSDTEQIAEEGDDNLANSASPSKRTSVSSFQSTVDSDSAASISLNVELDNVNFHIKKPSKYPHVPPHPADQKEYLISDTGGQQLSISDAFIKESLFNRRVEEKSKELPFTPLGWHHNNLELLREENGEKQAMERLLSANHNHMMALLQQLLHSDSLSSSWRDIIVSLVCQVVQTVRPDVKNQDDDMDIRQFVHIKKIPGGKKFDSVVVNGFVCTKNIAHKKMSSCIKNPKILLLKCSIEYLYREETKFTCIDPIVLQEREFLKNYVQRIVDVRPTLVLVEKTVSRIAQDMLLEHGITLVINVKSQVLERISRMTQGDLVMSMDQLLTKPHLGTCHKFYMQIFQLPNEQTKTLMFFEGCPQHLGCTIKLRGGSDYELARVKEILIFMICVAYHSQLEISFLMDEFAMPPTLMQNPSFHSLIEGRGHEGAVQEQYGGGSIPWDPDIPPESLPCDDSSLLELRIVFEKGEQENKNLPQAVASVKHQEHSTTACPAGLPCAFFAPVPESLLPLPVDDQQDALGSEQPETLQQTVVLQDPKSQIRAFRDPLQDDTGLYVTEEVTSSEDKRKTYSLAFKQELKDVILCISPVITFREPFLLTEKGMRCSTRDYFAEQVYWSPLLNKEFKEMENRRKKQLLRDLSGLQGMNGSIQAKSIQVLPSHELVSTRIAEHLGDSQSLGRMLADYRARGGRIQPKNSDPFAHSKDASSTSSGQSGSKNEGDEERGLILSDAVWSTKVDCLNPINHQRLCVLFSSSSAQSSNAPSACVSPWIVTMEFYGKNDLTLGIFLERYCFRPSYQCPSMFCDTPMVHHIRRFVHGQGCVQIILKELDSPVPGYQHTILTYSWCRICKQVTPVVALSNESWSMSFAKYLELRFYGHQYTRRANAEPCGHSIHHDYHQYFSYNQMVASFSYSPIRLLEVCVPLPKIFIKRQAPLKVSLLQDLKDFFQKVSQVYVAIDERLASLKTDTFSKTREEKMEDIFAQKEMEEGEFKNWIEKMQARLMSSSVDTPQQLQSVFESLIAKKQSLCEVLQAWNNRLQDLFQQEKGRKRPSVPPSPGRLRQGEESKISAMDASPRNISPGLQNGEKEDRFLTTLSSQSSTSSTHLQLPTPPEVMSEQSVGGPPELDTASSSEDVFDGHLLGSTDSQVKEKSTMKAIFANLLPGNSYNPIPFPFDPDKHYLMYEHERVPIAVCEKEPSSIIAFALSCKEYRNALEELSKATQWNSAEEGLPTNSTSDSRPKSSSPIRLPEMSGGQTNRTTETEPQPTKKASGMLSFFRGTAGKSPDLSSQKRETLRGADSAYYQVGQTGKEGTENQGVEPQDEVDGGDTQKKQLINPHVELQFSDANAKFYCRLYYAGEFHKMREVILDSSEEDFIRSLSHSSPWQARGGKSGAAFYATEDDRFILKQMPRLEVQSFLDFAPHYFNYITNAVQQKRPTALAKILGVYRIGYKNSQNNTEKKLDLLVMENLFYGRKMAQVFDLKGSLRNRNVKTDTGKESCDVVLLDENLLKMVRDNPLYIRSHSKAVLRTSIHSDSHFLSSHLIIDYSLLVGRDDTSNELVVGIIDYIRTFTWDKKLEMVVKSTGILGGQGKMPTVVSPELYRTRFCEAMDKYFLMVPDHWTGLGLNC
Protocol: as §1, §2, §3, §4

[4] = test system: TgAPP mice; assay: Morris water maze, TgAPP mice; assay type: in vivo, mouse; design: Platform Distance: unit not given beside the values; Total Distance / Quad Time / Quad Distance / Trial 1 D4 / Trial 1 D4 AVG: unit not given here
Protocol: The Morris water maze was performed using a water bath 6 ft in diameter and filled with roughly 1 ft of water. The maze was divided into four quadrants, each with a visual stimulus positioned on the wall of the maze in the center of the quadrant arc. A clear platform was placed in one quadrant just beneath the surface of the water. Mice were then placed in a random non-platform quadrant and allowed to swim freely for 60 s (time was stopped and recorded if the mouse found the platform) before being placed on the platform for 15 s and returned to their cage. This was repeated for each of the three quadrants each day for 4 d. On the 5th d, the platform was removed and mice were placed in the quadrant opposite of where the platform had been and allowed to swim freely for 1 min before being returned to their cage. Time spent in the correct quadrant, latency to the platform, number of platform entries, and number of quadrant entries were recorded.

[5] = test system: amyloid-beta in TgAPP mice; assay: ELISA for amyloid-beta in brain lysates; assay type: in vivo, mouse; settings: vs DMSO
Protocol: All samples were analyzed in parallel using the same reagents. A total of 25 μl soluble protein was incubated overnight at 4°C with 25 μl of a mixed bead solution. After washing, samples were incubated with 25 μl detection antibody solution for 1.5 h at RT. Streptavidin–phycoerythrin (25 μl) was added to each well containing the 25 μl of detection antibody solution. Samples were then washed and suspended in 100 μl of sheath fluid. Samples were then run on MAGPIX with Xponent software. The median fluorescent intensity data were analyzed using a five-parameter logistic or spline curve-fitting method for calculating analyte concentrations in samples. Specific pTau ser396 (KHB7031; Invitrogen), aggregated Aβ (KHB3491; Thermo Fisher Scientific), and Aβ42 (KHB3442; Invitrogen) were performed according to manufacturer’s protocol on tissue soluble extracts from brain lysates in 1XSTEN buffer.

[6] = MWM Probe, single animal values, listed as 143
[7] = MWM Probe, single animal values, listed as 143, in s (unit assumed)
[8] = MWM training, Day 1, single animal values, listed as 143
[9] = MWM training, Day 2, single animal values, listed as 143
[10] = MWM training, Day 3, single animal values, listed as 143
[11] = MWM training, Day 4, single animal values, listed as 143

SMILES: Cc1cccc(-c2cc3nccc(Nc4ccccc4)c3s2)c1 [BK40143]
- inhibition at 10 µM [1]: 99.8%
- remaining binding at 10 µM ([1]; lower = stronger binding, read-out: KIT (V559D) %Ctrl @ 10000nM (POC)): 0.25%
- inhibition at 10 µM [2]: 69%
- remaining binding at 10 µM ([2]; lower = stronger binding, read-out: DDR1 %Ctrl @ 10000nM): 31%
- inhibition at 10 µM [3]: 32%
- remaining binding at 10 µM ([3]; lower = stronger binding, read-out: PIKFYVE %Ctrl @ 10000nM (POC)): 68%
- Platform Distance [4, 6]: 0.467 and 0 and 0.449 and 0.195 and 0.184 and 0.331 and 0.254 and 0.89 and 0.328
- Platform Entries [4, 6]: 2 and 0 and 1 and 3
- Quad Distance [4, 6]: 5.043 and 5.446 and 3.201 and 3.934 and 3.492 and 4.145 and 2.65 and 6.181 and 3.964
- Quad Distance/Total [4, 6]: 0.3982 and 0.4027 and 0.1894 and 0.2536 and 0.5166 and 0.3292 and 0.1787 and 0.6061 and 0.2552
- Quad Entries [4, 6]: 10 and 8 and 9 and 3 and 6 and 13 and 7
- Quad Time [4, 6]: 22.9 and 26.8 and 10.6 and 13.3 and 30.6 and 20.6 and 8.1 and 36.5 and 15.3
- Total Distance [4, 6]: 12.663 and 13.525 and 16.899 and 15.514 and 6.759 and 12.592 and 14.83 and 10.786 and 10.198 and 15.531
- Platform Latency ([4]; MWM Probe, single animal values, listed as 143, in s): 7 and 60 and 18.8 and 32.8 and 39.9 and 29.7 and 3.9 and 19 and 17.1
- Platform Time [4, 7]: 1.2 and 0 and 1.4 and 0.6 and 0.8 and 5.3 and 1
- Quad Latency [4, 7]: 3 and 9.6 and 9.7 and 11.8 and 11.9 and 1 and 2.6 and 4.4 and 3.3
- Quad Time per Entry [4, 7]: 2.29 and 3.35 and 1.178 and 4.433 and 5.1 and 1.585 and 1.35 and 5.214 and 1.9125
- Training Day 1 AVG ([4]; MWM training, Day 1, group average): 51.6747
- Training Day 1, mean of the three trials per animal ([4]; MWM training, Day 1, per-animal mean, listed as 143): 53.4467 and 60 and 52.4667 and 29.4467 and 47.4833 and 58.2367 and 44.37 and 51.2967
- Training Day 1, trial 1 [4, 8]: 40.34 and 60 and 56.02
- Training Day 1, trial 2 [4, 8]: 60 and 37.4 and 16.7 and 22.45 and 54.71 and 56.59
- Training Day 1, trial 4 [4, 8]: 60 and 11.64 and 20.5 and 33.89
- Training Day 2 AVG ([4]; MWM training, Day 2, group average): 35.2243
- Training Day 2, mean of the three trials per animal ([4]; MWM training, Day 2, per-animal mean, listed as 143): 48.7167 and 60 and 46.3833 and 23.8467 and 50.26 and 10.58 and 21.0467 and 41.7533 and 44.3033 and 5.353
- Training Day 2, trial 1 [4, 9]: 60 and 20.69 and 7.13 and 14.22 and 47.78 and 22.96 and 5.56
- Training Day 2, trial 2 [4, 9]: 60 and 19.15 and 23.07 and 4.53 and 36.28 and 34.46 and 5.16
- Training Day 2, trial 4 [4, 9]: 26.15 and 60 and 27.78 and 30.78 and 20.08 and 12.64 and 43.02 and 49.95 and 5.34
- Training Day 3 AVG ([4]; MWM training, Day 3, group average): 21.9237
- Training Day 3, mean of the three trials per animal ([4]; MWM training, Day 3, per-animal mean, listed as 143): 16.49 and 19.77 and 22.4067 and 12.88 and 27.5233 and 6.497 and 51.49 and 20.0267 and 24.96 and 17.1933
- Training Day 3, trial 1 [4, 10]: 5.91 and 7.09 and 10.32 and 15.21 and 29.09 and 11.01 and 60 and 23.94 and 21.27 and 31.09
- Training Day 3, trial 2 [4, 10]: 2.72 and 9.21 and 18.46 and 13.59 and 19.08 and 3.47 and 34.47 and 8.82 and 17.41 and 5.46
- Training Day 3, trial 4 [4, 10]: 40.84 and 43.01 and 38.44 and 9.84 and 34.4 and 5.01 and 60 and 27.32 and 36.2 and 15.03
- Trial 1 D4 AVG ([4]; MWM training, Day 4, Trial 1, group average): 16.872
- Training Day 4 AVG ([4]; MWM training, Day 4, group average): 25.5753
- Training Day 4, mean of the three trials per animal ([4]; MWM training, Day 4, per-animal mean, listed as 143): 15.5667 and 10.07 and 25.41 and 53.8233 and 37.2967 and 27.5933 and 22.5667 and 22.4167 and 10.7767 and 30.2333
- Training Day 4, trial 1 [4, 11]: 12.47 and 11.66 and 37.95 and 60 and 26.19 and 10.69 and 29.33 and 43.27 and 12.2 and 43.31
- Training Day 4, trial 2 [4, 11]: 3.58 and 4.64 and 11.51 and 49.87 and 42.77 and 12.09 and 15.35 and 10.7 and 9.45 and 8.76
- Training Day 4, trial 4 [4, 11]: 30.65 and 13.91 and 26.77 and 51.6 and 42.93 and 60 and 23.02 and 13.28 and 10.68 and 38.63
- Morris water maze probe day (time in correct quadrant, quadrant entries, latency to platform) ([4]; TgAPP mice, 5 mg/kg IP, 6 wk, vs DMSO): showed improvement on measures of memory on the probe day of the water maze
- Morris water maze training trials: time to locate the platform ([4]; TgAPP mice, BK40143 5 mg/kg, BK40197 45 mg/kg IP, 6 wk, vs DMSO): locate the platform significantly quicker on later training trials
- Aβ concentration in brain lysate (ELISA) [5]: significantly reduced Aβ and pTau (396) concentrations
